Reference: patent US20200215142A1, “PHARMACEUTICAL COMPOSITION CONTAINING AVOCADO OIL FRACTION AS ACTIVE INGREDIENT FOR PREVENTION OR TREATMENT OF HEARING LOSS” (DONG KOOK PHARM CO., LTD, priority 2017, published 2020)

What was measured:
[1] = test system: hair cells of zebrafish reduced by kanamycin; assay type: in vivo; settings: kanamycin 1 μM vs neomycin 1 μM, 1 h; comparison of Experimental Examples 6 and 7
Procedure: Particularly, 6 days after fertilization, zebrafish larvaes were placed in 24-well plates and kanamycin was added thereto at the concentration of 1 μM. One hour later, kanamycin was removed and IPG and BG were added at the concentration of 10 μg/ml. At this time, 0.03% (w/v) sea salt solution was used as the control. Twelve hours later, 0.1% YO-PRO (Life Technologies, USA) was added to stain hair cells of the larvaes for 30 minutes. The stained hair cells were observed using a fluorescence microscope (Olympus 1x70, Olympus, Japan), and the number of the observed hair cells was counted and analyzed. As a result, the number of hair cells observed with a fluorescence microscope was shown in FIG. 11 and photomicrographs of the hair cells taken with a fluorescence microscope were shown in FIG. 12.

[2] = test system: hair cells of zebrafish reduced by neomycin; experiment: Hair cells of zebrafish larvae reduced by neomycin (ototoxicity), YO-PRO staining and fluorescence microscope count; assay type: in vivo; settings: neomycin 1 μM 1 h, then single substance 1 μg/ml 12 h (FIGS. 7, 8)
Procedure: Particularly, 6 days after fertilization, zebrafish […] placed in 24-well plates and neomycin was added thereto at the concentration of 1 μM. One hour later, neomycin was removed and the isopropanol fraction of avocado oil prepared in Example 1 was added at the concentration of 1 μg/ml. At this time, avocado oil was used as the control and 0.03% (w/v) sea salt solution was used as the untreated control. Twelve hours later, 0.1% YO-PRO (Life Technologies, USA) was added to stain hair cells of the […] for 30 minutes. […] Particularly, 6 days after fertilization, zebrafish […] placed in 24-well plates and neomycin was added thereto at the concentration of 1 μM. One hour later, neomycin was removed and A-E were added at the concentration of 10 μg/ml. At this time, 0.03% (w/v) sea salt solution was used as the control. Twelve hours later, 0.1% YO-PRO (Life Technologies, USA) was added to stain hair cells of the […] for 30 minutes. The stained hair cells were observed using a fluorescence microscope (Olympus 1x70, Olympus, Japan), and the number of the observed hair cells was counted and analyzed.

| SMILES | toxicity to hair cells of zebrafish fry (reduction of the number of hair cells) [1] | number of hair cells [2] |
| --- | --- | --- |
| NC[C@H]1O[C@H](O[C@H]2[C@H](O)[C@@H](O[C@H]3O[C@H](CO)[C@@H](O)[C@H](N)[C@H]3O)[C@H](N)C[C@@H]2N)[C@H](O)[C@@H](O)[C@@H]1O [kanamycin] | more toxic than neomycin | – |
| CC/C=C\C/C=C\C/C=C\CCCCCCCC(=O)O [alpha-linolenic acid] | – | significantly increased |
| CCCCC/C=C\C/C=C\CCCCCCCC(=O)O [linoleic acid] | – | significantly increased |
| CCCCCCCCCCCCCCCCCC(=O)O [stearic acid] | – | significantly increased |
